Legend:
[1] = target: KRas^G13D (Homo sapiens, UniProt P01116, G13D); assay: biochemical
Description: (§1) The ability of a compound to bind to KRas was measured using a TR-FRET displacement assay. […] After a 60-minute incubation at room temperature, the reaction was measured using a BMG LABTECH CLARIO star Plus via TR-FRET. […] The POC values were fit to a 4-parameter IC50 equation and the IC50 value reported.

[2] = target: T1, KRas^G12V (Homo sapiens, UniProt P01116, G12V); assay: KRas binding assay (TR-FRET displacement of Cy5 labelled tracer)
T1 construct: […]; biotin (biotinylated); purchased Accelegan Inc
Description: as §1

[3] = target: T2, KRas^G12A (Homo sapiens, UniProt P01116, G12A); assay: as above
T2 construct: […]; biotin (biotinylated); purchased Accelegan Inc
Description: as §1

[4] = target: T3, KRas^G12S (Homo sapiens, UniProt P01116, G12S); assay: as above
T3 construct: […]; biotin (biotinylated); purchased Accelegan Inc
T3 sequence (P01116 1-169 isoform P01116-2 G12S): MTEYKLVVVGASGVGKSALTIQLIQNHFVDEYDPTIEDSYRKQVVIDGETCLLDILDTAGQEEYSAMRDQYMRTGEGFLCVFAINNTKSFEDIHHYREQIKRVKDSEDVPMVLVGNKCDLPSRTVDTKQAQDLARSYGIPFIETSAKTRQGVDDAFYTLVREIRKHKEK
Description: as §1

[5] = target: T4, KRas^G12D (Homo sapiens, UniProt P01116, G12D); assay: as above
T4 construct: […]; biotin (biotinylated); purchased Accelegan Inc
T4 sequence (P01116 1-169 isoform P01116-2 G12D): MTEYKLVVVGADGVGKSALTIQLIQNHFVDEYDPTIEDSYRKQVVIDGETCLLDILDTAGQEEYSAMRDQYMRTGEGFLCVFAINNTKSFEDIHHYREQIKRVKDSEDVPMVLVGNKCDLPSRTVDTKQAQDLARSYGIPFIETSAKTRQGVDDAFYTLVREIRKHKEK
Description: as §1

[6] = target: KRas^G12C (Homo sapiens, UniProt P01116, G12C); assay: biochemical
KRas^G12C, sequence (P01116 1-169 isoform P01116-2 G12C): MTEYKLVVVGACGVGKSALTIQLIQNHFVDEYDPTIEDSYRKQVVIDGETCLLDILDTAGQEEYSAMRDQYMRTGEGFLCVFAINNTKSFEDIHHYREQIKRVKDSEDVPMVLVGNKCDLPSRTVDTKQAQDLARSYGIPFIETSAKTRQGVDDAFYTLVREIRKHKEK
Description: as §1

[7] = target: T5, KRas^WT (Homo sapiens, UniProt P01116); assay: KRas binding assay (TR-FRET displacement of Cy5 labelled tracer)
T5 construct: […]; biotin (biotinylated); purchased Accelegan Inc
T5 sequence (P01116 1-169 isoform P01116-2): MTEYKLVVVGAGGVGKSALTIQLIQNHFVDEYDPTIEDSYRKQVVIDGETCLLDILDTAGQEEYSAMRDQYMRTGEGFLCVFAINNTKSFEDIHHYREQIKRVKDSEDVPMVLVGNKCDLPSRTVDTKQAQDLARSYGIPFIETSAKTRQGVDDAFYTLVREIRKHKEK
Description: as §1

[8] = target: KRas^Q61H (Homo sapiens, UniProt P01116, Q61H); assay: biochemical
KRas^Q61H, sequence (P01116 1-169 isoform P01116-2 Q61H): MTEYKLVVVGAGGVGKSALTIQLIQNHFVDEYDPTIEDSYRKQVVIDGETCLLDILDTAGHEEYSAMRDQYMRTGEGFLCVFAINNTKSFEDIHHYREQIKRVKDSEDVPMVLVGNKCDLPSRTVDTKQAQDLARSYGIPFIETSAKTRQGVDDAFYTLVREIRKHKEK
Description: as §1

[9] = target: T6, KRas^G12R (Homo sapiens, UniProt P01116, G12R); assay: KRas binding assay (TR-FRET displacement of Cy5 labelled tracer)
T6 construct: […]; biotin (biotinylated); purchased Accelegan Inc
T6 sequence (P01116 1-169 isoform P01116-2 G12R): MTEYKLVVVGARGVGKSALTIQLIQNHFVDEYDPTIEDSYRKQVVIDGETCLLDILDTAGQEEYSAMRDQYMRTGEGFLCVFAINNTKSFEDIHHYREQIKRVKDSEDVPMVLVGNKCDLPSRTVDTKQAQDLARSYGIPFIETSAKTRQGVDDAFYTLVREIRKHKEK
Description: as §1

T1 sequence (P01116 1-169 isoform P01116-2 G12V): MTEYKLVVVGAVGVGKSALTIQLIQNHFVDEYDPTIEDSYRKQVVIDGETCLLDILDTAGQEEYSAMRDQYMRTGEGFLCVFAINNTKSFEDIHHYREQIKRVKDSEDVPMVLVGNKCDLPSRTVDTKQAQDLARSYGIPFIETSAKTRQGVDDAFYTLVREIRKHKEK
KRas^G13D, sequence (P01116 1-169 isoform P01116-2 G13D): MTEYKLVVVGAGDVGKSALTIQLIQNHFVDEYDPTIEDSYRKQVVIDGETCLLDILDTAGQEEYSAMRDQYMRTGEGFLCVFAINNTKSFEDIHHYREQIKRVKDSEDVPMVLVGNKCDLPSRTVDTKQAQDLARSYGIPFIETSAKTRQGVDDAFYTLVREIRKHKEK
T2 sequence (P01116 1-169 isoform P01116-2 G12A): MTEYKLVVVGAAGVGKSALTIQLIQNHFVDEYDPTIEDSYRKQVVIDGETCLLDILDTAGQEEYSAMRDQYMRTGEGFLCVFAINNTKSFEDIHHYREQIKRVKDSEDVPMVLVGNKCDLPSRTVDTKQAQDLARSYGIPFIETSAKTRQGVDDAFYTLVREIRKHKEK

Compound | IC50 [1] | IC50 [2] | IC50 [3] | IC50 [4] | IC50 [5] | IC50 [6] | IC50 [7] | IC50 [8] | IC50 [9]
CCc1cccc2cccc(N3CCc4c(nc(OCC56CCCN5CCC6)nc4N(C)CC4(O)CC4)C3)c12 [Example 98, 1-(((7-(8-ethylnaphthalen-1-yl)-2-((tetrahydro-1H-pyrrolizin-7a(5H)-yl)methoxy)-5,6,7,8-tetrahydropyrido[3,4-d]pyrimidin-4-yl)(methyl)amino)methyl)cyclopropan-1-ol] | 629 nM | 341 nM | 453 nM | 482 nM | 1070 nM | 330 nM | 444 nM | 537 nM | 514 nM
CCc1cccc2cccc(N3CCc4c(nc(OCC56CCCN5CCC6)nc4N4CCC(O)C(CO)C4)C3)c12 (stereo not drawn) [Example 109, 1-(7-(8-ethylnaphthalen-1-yl)-2-((tetrahydro-1H-pyrrolizin-7a(5H)-yl)methoxy)-5,6,7,8-tetrahydropyrido[3,4-d]pyrimidin-4-yl)-3-(hydroxymethyl)piperidin-4-ol] | 893 nM | 690 nM | 735 nM | 612 nM | 1770 nM | 456 nM | 519 nM | 898 nM | 387 nM
CCc1cccc2cccc(N3CCc4c(nc(OCC56CCCN5CCC6)nc4N4CCCN(C(N)=O)CC4)C3)c12 [Example 95, 4-(7-(8-ethylnaphthalen-1-yl)-2-((tetrahydro-1H-pyrrolizin-7a(5H)-yl)methoxy)-5,6,7,8-tetrahydropyrido[3,4-d]pyrimidin-4-yl)-1,4-diazepane-1-carboxamide] | 254 nM | 990 nM | 655 nM | 953 nM | 4700 nM | 656 nM | 255 nM | 343 nM | 724 nM
CCc1cccc2cccc(N3CCc4c(nc(OCC56CCCN5CCC6)nc4N4CCCC(c5nnc6n5CCC6)C4)C3)c12 (stereo not drawn) [Example 106, 4-(3-(6,7-dihydro-5H-pyrrolo[2,1-c][1,2,4]triazol-3-yl)piperidin-1-yl)-7-(8-ethylnaphthalen-1-yl)-2-((tetrahydro-1H-pyrrolizin-7a(5H)-yl)methoxy)-5,6,7,8-tetrahydropyrido[3,4-d]pyrimidine] | 1070 nM | 1300 nM | 628 nM | 752 nM | 2230 nM | 369 nM | 1420 nM | 1460 nM | 1790 nM
CCc1cccc2cccc(N3CCc4c(nc(OCC56CCCN5CCC6)nc4N4CCCn5nc(CO)cc5C4)C3)c12 [Example 8, (5-(7-(8-ethylnaphthalen-1-yl)-2-((tetrahydro-1H-pyrrolizin-7a(5H)-yl)methoxy)-5,6,7,8-tetrahydropyrido[3,4-d]pyrimidin-4-yl)-5,6,7,8-tetrahydro-4H-pyrazolo[1,5-a][1,4]diazepin-2-yl)methanol] | 628 nM | 137 nM | 316 nM | 175 nM | 43 nM | 139 nM | 271 nM | 567 nM | 102 nM
CCc1cccc2cccc(N3CCc4c(nc(OCC56CCCN5CCC6)nc4N4CCCC(n5ccc(C)n5)C4)C3)c12 (stereo not drawn) [Example 94, 7-(8-ethylnaphthalen-1-yl)-4-(3-(3-methyl-1H-pyrazol-1-yl)piperidin-1-yl)-2-((tetrahydro-1H-pyrrolizin-7a(5H)-yl)methoxy)-5,6,7,8-tetrahydropyrido[3,4-d]pyrimidine] | 699 nM | 1290 nM | 793 nM | 883 nM | 2120 nM | 525 nM | 860 nM | 757 nM | 244 nM
CCc1cccc2cccc(N3CCc4c(nc(OCC56CCCN5CCC6)nc4N4CCCC(NC(=O)N(C)C)C4)C3)c12 (stereo not drawn) [Example 91, 3-(1-(7-(8-ethylnaphthalen-1-yl)-2-((tetrahydro-1H-pyrrolizin-7a(5H)-yl)methoxy)-5,6,7,8-tetrahydropyrido[3,4-d]pyrimidin-4-yl)piperidin-3-yl)-1,1-dimethylurea] | 919 nM | 435 nM | 292 nM | 459 nM | 1040 nM | 382 nM | 765 nM | 963 nM | 229 nM
CCc1cccc2cccc(N3CCc4c(nc(OCC56CCCN5CCC6)nc4N4CCC(c5[nH]ncc5N)C4)C3)c12 (stereo not drawn) [Example 46, 5-(1-(7-(8-ethylnaphthalen-1-yl)-2-((hexahydro-1H-pyrrolizin-7a-yl)methoxy)-5,6,7,8-tetrahydropyrido[3,4-d]pyrimidin-4-yl)pyrrolidin-3-yl)-1H-pyrazol-4-amine] | 2860 nM | 232 nM | 448 nM | 611 nM | 6750 nM | 401 nM | 1820 nM | 2230 nM | 277 nM
CCc1cccc2cccc(N3CCc4c(nc(OCC56CCCN5CCC6)nc4N4CCC(O)C(CO)CC4)C3)c12 (stereo not drawn) [Example 13, 1-(7-(8-ethylnaphthalen-1-yl)-2-((tetrahydro-1H-pyrrolizin-7a(5H)-yl)methoxy)-5,6,7,8-tetrahydropyrido[3,4-d]pyrimidin-4-yl)-5-(hydroxymethyl)azepan-4-ol] | 40 nM | 73 nM | 51 nM | 70 nM | 290 nM | 82 nM | 41 nM | 57 nM | 99 nM
CCc1cccc2cccc(N3CCc4c(nc(OCC56CCCN5CCC6)nc4N4CC[C@H]5C(=O)NC[C@H]5C4)C3)c12 [Example 141, (3aS,7aR)-5-(7-(8-ethylnaphthalen-1-yl)-2-((tetrahydro-1H-pyrrolizin-7a(5H)-yl)methoxy)-5,6,7,8-tetrahydropyrido[3,4-d]pyrimidin-4-yl)octahydro-1H-pyrrolo[3,4-c]pyridin-1-one] | 1200 nM | 1260 nM | 2950 nM | 2490 nM | 8520 nM | 2300 nM | 1620 nM | 1610 nM | 1640 nM
CCc1cccc2cccc(N3CCc4c(nc(OCC56CCCN5CCC6)nc4N4CC(CO)OC5(CCC5)C4)C3)c12 (stereo not drawn) [Example 129, (8-(7-(8-ethylnaphthalen-1-yl)-2-((tetrahydro-1H-pyrrolizin-7a(5H)-yl)methoxy)-5,6,7,8-tetrahydropyrido[3,4-d]pyrimidin-4-yl)-5-oxa-8-azaspiro[3.5]nonan-6-yl)methanol] | 3220 nM | 2410 nM | 2970 nM | 2140 nM | 16000 nM | 1300 nM | 2210 nM | 2430 nM | 760 nM
CCc1cccc2cccc(N3CCc4c(nc(OCC56CCCN5CCC6)nc4N4CCCC(O)(C(F)F)C4)C3)c12 (stereo not drawn) [Example 44, 3-(difluoromethyl)-1-(7-(8-ethylnaphthalen-1-yl)-2-((hexahydro-1H-pyrrolizin-7a-yl)methoxy)-5,6,7,8-tetrahydropyrido[3,4-d]pyrimidin-4-yl)piperidin-3-ol] | 163 nM | 200 nM | 202 nM | 202 nM | 162 nM | 232 nM | 191 nM | 226 nM | 308 nM
CCc1cccc2cccc(N3CCc4c(nc(OCC56CCCN5CCC6)nc4NCc4cccnc4-n4cncn4)C3)c12 [Example 142, N-((2-(1H-1,2,4-triazol-1-yl)pyridin-3-yl)methyl)-7-(8-ethylnaphthalen-1-yl)-2-((tetrahydro-1H-pyrrolizin-7a(5H)-yl)methoxy)-5,6,7,8-tetrahydropyrido[3,4-d]pyrimidin-4-amine] | 13100 nM | 1380 nM | 2320 nM | 1870 nM | 10500 nM | 1250 nM | 7520 nM | 7250 nM | 1720 nM
CCc1cccc2cccc(N3CCc4c(nc(OCC56CCCN5CCC6)nc4Nc4cnn(CC(N)=O)c4)C3)c12 [Example 139, 2-(4-((7-(8-ethylnaphthalen-1-yl)-2-((tetrahydro-1H-pyrrolizin-7a(5H)-yl)methoxy)-5,6,7,8-tetrahydropyrido[3,4-d]pyrimidin-4-yl)amino)-1H-pyrazol-1-yl)acetamide] | 5440 nM | 1170 nM | 2540 nM | 2830 nM | 12400 nM | 1490 nM | 3480 nM | 4580 nM | 1410 nM
CCc1cccc2cccc(N3CCc4c(nc(OCC56CCCN5CCC6)nc4N4CCC(OCC(N)=O)CC4)C3)c12 [Example 89, 2-((1-(7-(8-ethylnaphthalen-1-yl)-2-((tetrahydro-1H-pyrrolizin-7a(5H)-yl)methoxy)-5,6,7,8-tetrahydropyrido[3,4-d]pyrimidin-4-yl)piperidin-4-yl)oxy)acetamide] | 1130 nM | 593 nM | 427 nM | 721 nM | 7110 nM | 465 nM | 959 nM | 929 nM | 219 nM
